Data on two molecules can be found in patent publication US20230165978A1, “Composition and A Method For Diagnosing And Treating Bacterial Infection” (Hong Kong Centre for Cerebro-Cardiovascular Health …, priority 2021, published 2023).

For one series, the system named is UMUC-3 cell lines. In words: Drug treatments of cancer cell clusters in 3D model with bacteria outside tissue; cell viability test (Hoechst/Calcein-AM). The series is classed as cell-based. To be noted: Homo sapiens, UMUC3, 24 h; for IC50: 3D model with bacteria outside tissue, 24 hrs of incubation, read-out: IC50 of doxorubicin for cancer cells. How it is done:
70% (v/v) ethanol (EtOH; UNI-CHEM) was added to channels to sterilize the platform and remove air bubbles. 1× phosphate-buffered saline (PBS; Gibco, #10010049, USA) was used to remove residual EtOH, and the microwell layer was then coated with 50 μL of 2.5% bovine serum albumin (v/v) (BSA) (Sigma-Aldrich, #A9418-5G, Germany) to prevent cell adhesion to the channels. The capacity of each channel was 150 μL. UMUC-3 cell clusters in the microchannels could be stained in situ with Hoechst dye (Invitrogen, #H1399, USA) for 30 min to visualize cell nuclei or biofilm. Imaging and downstream analysis were carried out in situ after 1 h, 9 h, and 24 h of infection. UMUC-3 cell clusters without bacteria were used as negative controls. The bacterial suspension was centrifuged for 10,000 rpm. LB supernatant was removed and replaced with antibiotic-free MEM a (10% supplemented with FBS) at the required multiplicity of infection (MOI) rates (500:1 or 1:1). Control groups corresponding to 0 h time points were obtained before the introduction of bacteria.
Nuclear dye Hoechst (blue) and Calcein-AM (green) Invitrogen, #C3100MP, USA) were added to the channels at a final concentration of 20 μM. Clusters were imaged after 30 min incubation at 37° C. Using ImageJ for analysis. We enumerated only cancer cells within the area range of 25-250 μm^2 and circularity 0.3-1.0 to ensure that smaller bacteria were excluded from the count.
UMUC-3 cells were seeded into a PIEB device at 35×10^3 cells/channel concentration and cultured at 37° C. overnight. Then UPEC was suspended in PBS and added into each channel at the MOI of 1:1. Then the bacteria and cells were incubated at 37° C. for 1 h in the device. TBPP was added into the channel and followed by light treatment for 30 mins. The medium was replaced by fresh RPMI with DOX (Sigma-Aldrich, #D1515-10MG, 25316-40-9, China). After 24 h incubation, cells were dyed with Hoechst and Calcein AM for imaging.

A short description of series [1]: ROS generation test with DCFH-DA under white light. To be noted: photosensitizer 10 μM, DCFH-DA 40 μM. The protocol:
Dichlorodihydrofluorescein diacetate (DCFH-DA, Sigma-Aldrich #D6665-5G, 76-54-0, China) was used as the ROS indicator. 40 μL of DCFH-DA stock solution (1 mM) was added into 2 mL of different photosensitizers suspension (10 μM) including TBPPs and chlorin e6 (Sigma-Aldrich #COM448659756-100MG, QC-6466, USA). Then white light ([…]) was used to irradiate, and the emission of DCFD-DA at 525 nm was recorded at various irradiation times.

Series [2] has as its system human bladder carcinoma cell line (UMUC-3). In words: Cancer cell staining by TBPP. To be noted: TBPP 1 μM. The series is classed as cell-based. How it is done: The human bladder carcinoma cell line UMUC-3 (CRL-1749, ATCC) were cultured in modified Minimum Essential Medium Alpha (MEM a; Gibco, #12561049, USA) supplemented with 10% (v/v) fetal bovine serum (FBS; Gibco, #10270106, USA) and 1% (v/v) penicillin-streptomycin (Gibco, #15140122, USA) at 37° C. with 5% CO2 in a humidified environment. Cells were cultured in sterile T25 or T75 flasks (Jet BIOFIL, China), with growth media replaced every 48 h. Cultures were passaged at 80% confluence.
[…] of TBPP and 10 μM of Calcein-AM were added to the channels. Clusters were then imaged after 60 min incubation at 37° C. Z-stack were recorded via confocal microscope.

Series [3] can be described thus: Photophysical properties (absorption and photoluminescence spectra). The series is classed as physicochemical. How it is done: All chemicals and reagents were commercially available and used as received without further purification. ^1H and ^13C NMR spectra were measured on a Bruker ARX 400 NMR spectrometer using CDCl3 and DMSO-d6 as solvents, and tetramethylsilane (TMS; 6=0 ppm) was chosen as the internal reference. High-resolution mass spectra (HRMS) were obtained on a Finnigan MAT TSQ 7000 mass spectrometer system operated in a matrix-assisted laser desorption and ionization-time-of-flight (MALDI-TOF) mode. Absorption spectra were measured on a Milton Roy Spectronic 3000 array spectrophotometer. Steady-state photoluminescence (PL) spectra were measured on a PerkinElmer spectrofluorometer LS 55.

In a further series the test system is UPEC. The experiment in a line: Fluorescent imaging of bacteria by TBPP. The series is classed as cell-based, uropathogenic E. coli (UPEC) strain UTI89. How it is done:
A single colony of UPEC on solid culture medium was transferred to 5 mL of Luria-Bertani (LB) medium and incubated at 37° C. for overnight. After reaching the logarithmic phase, bacteria were harvested by centrifuging at 10000 g for 3 min. After removing the supernatant, bacteria were diluted in ABTGC (ABT minimal medium supplemented with […]) to 1×10^5/mL. 300 μL of bacteria solution were added to the culture dish. Then, 300 μL dye solution in saline at appropriate concentration was added into the culture dish for 1 h and directly imaged by Leica TCS SP8 MP confocal microscope (Germany).

Read-outs that look alike come from different tables or passages of the source.

For orientation: IC50 means the concentration at which inhibition is half-maximal. For `COc1cccc2c1C(=O)c1c(O)c3c(c(O)c1C2=O)C[C@@](O)(C(=O)CO)C[C@@H]3O[C@H]1C[C@H](N)[C@H](O)[C@H](C)O1` [doxorubicin], the results for the IC50 with UMUC-3 cell lines (doxorubicin alone) and with UMUC-3 cell lines (doxorubicin combined with TBPP) were 8 µM and 5 µM, respectively.
What is called viability is the share of living cells, or the viability signal relative to a control. `C[N+](C)(C)CCC[n+]1ccc(-c2ccc(-c3ccc(N(c4ccccc4)c4ccccc4)cc3)c3nsnc23)cc1.[Br-].[Br-]` [TBPP, 4-(7-(4-(diphenylamino)phenyl)benzo[c][1,2,5]thiadiazol-4-yl)-1-(3-(trimethylammonio)propyl)pyridin-1-ium bromide]: in series [1], the “ROS generation (change of DCFH-DA fluorescence I/I0 with irradiation time)” value was “much greater change than commercial photosensitizer, Ce6”. In addition, the “fluorescence in cancer cell staining” value in series [2] is given as “negligible fluorescence”. Besides, in series [3], the “Stokes shift (Δv)” value turned out to be 198 nm. In series [3] (in DMSO, 10 μM), this molecule registered an absorption maximum of 492 nm and an emission maximum of 690 nm. Besides, in the series with UPEC (TBPP 1 μM, biofilm compared with planktonic bacteria), the “fluorescent signal of UPEC biofilm” value is “much higher signal than the planktonic bacteria”. Moreover, the “NIR fluorescent signal on UPEC (monolayer model)” value in the series with UPEC (TBPP 10 μM, 1 h to 24 h) is “targeting ability to UPEC”. In addition, the viability at 5 µM in the series on UMUC-3 cell lines (read-out: viability of cancer cells) is approximately 60%.
